Target: T1, human cathepsin B (Homo sapiens, UniProt P07858)
T1 construct: Cathepsin B purified from human liver (Sigma-Aldrich, St. Louis, MO, USA); purchased Sigma-Aldrich; host or cells: human liver
Test: Fluorogenic cathepsin-cleavage assay (Z-RR-AMC)
Format: biochemical
Conditions: recombinant cathepsin B, in vitro
Source text: The fluorogenic cathepsin-cleavage assay was done as previously described using the cathepsin B cleavage substrate Z-Arg-Arg-7-amido-4-methylcoumarin hydrochloride (Z-RR-AMC; Sigma-Aldrich, St. Louis, MO, USA) and human cathepsin B with or without the cathepsin inhibitor CA-074Me (EMD Millipore, Burlington, MA, USA).

SMILES: CCCNC(=O)[C@H]1O[C@@H]1C(=O)N[C@H](C(=O)N1CCC[C@H]1C(=O)OC)[C@@H](C)CC [CA-074Me]
- inhibition of cathepsin B cleavage of fluorogenic reporter substrate: blocked reporter substrate cleavage

From paper PMC6719084, “Activating the Intrinsic Pathway of Apoptosis Using BIM BH3 Peptides Delivered by Peptide Amphiphiles with Endosomal Release” (Materials, 2019)
